Data taken from patent US12139486B2, “Octahydro fused azadecalin glucocorticoid receptor modulators” (Corcept Therapeutics, Inc., priority 2013, dated 2024).

Key:
human recombinant GR = target: T1, human recombinant GR (Homo sapiens, UniProt P04150); assay: Human Glucocorticoid Receptor (GR) Fluorescence Polarisation (FP) Binding Assay; conditions: Ki from IC50 by ligand depletion correction; displacement of Fluorome GS Red
T1 construct: purchased PanVera P2812
T1 sequence (P04150 1-777): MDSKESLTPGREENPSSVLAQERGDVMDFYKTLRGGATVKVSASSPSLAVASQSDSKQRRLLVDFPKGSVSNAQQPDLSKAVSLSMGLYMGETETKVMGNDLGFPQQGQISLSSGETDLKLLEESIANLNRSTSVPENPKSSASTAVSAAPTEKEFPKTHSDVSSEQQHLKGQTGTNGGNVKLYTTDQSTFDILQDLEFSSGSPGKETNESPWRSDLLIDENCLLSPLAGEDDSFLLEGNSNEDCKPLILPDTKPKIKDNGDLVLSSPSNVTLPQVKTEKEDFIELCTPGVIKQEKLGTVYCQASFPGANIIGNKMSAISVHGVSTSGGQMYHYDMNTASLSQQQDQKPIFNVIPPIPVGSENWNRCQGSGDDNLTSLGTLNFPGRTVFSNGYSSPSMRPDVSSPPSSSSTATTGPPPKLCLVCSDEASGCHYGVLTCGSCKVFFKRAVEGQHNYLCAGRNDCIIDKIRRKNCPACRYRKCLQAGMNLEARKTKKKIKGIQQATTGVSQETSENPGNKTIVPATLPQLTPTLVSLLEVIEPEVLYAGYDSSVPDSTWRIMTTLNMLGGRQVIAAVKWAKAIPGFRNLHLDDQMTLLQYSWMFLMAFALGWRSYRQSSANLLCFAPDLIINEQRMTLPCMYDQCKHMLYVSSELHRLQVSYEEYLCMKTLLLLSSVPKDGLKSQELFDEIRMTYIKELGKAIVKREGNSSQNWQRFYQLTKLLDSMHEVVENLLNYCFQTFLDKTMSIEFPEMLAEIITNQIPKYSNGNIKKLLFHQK
Description: The following is a description of a FP assay for measuring compound inhibition of labelled glucocorticoid binding to the human recombinant GR.
The binding affinity of test compounds was determined using a FP binding assay using human recombinant GR (PanVera P2812) and a fluorescent labelled glucocorticoid ligand (Fluorome GS Red) (PanVera P2894). The presence of inhibitors prevents the formation of a GS Red/GR complex resulting in a decrease in the measured polarisation value. The change in polarisation value in the presence of test compounds is used to calculate the binding affinity of the compound for GR.
This assay was performed in 384 well, black, round-bottom, polypropylene micro titre plates in a final volume of 20 μl. The assay contained 5 μl 1 nM GR (final concentration), 5 μl 0.5 nM Fluorome GS Red (final concentration) in the presence of 10p test compounds. Positive control wells (high polarisation) receive, 10 μl 2% (v:v) DMSO vehicle (1% (v/v) final concentration)+5 μl 1 nM GR and 5 μl 0.5 nM Fluorome GS Red. […] Assay blank background wells (used for normalisation) receive 15 μl 1×GS screening buffer+5 μl GR.
For the IC50 determination (concentration of compound that displaces 50% of the bound GS Red), compounds were tested at eight different concentrations in duplicate in two independently performed experiments. Compounds were prepared as solubilised solids at 10 mM in DMSO. On the day of assay, an 8 point half-log serial dilution (55 μl DMSO+25 μl compound solution) was prepared. A 1:50 dilution (1 μl compound solution+49 μl 1×GR screening buffer) was prepared for each compound. The compounds were prepared at 2× final assay concentration.
The plates were mixed and incubated for 4 hour at room temperature. FP was measured using an Envision Excite plate reader with 535 nm excitation and 590 nm emission interference filters.
Milli-polarisation (mP) values were calculated using the below equation: mP=1000*(S−G*P)/(S+G*P) where S and P are assay blank background subtracted fluorescence units, G=G-factor (1.07).
Compound IC50 values were calculated by plotting a [compound] v. % inhibition curve and fitting the data to a 4-parameter logistic fit equation.
10×GR screening buffer (100 mM potassium phosphate pH 7.4, 200 mM Na2MoO4, 1 mM EDTA, 20% (v/v) DMSO). To prepare 1×GR screening buffer, combine 1 ml 10×GR screening buffer (PanVera P2814)+1 ml stabilising peptide (PanVera P2815)+7.95 ml 4° C. MQ water. Add 50p 1M DTT, vortex and place on ice until use.

glucocorticoid receptor = target: T2, glucocorticoid receptor (Homo sapiens, UniProt P04150); assay: HepG2 Tyrosine Aminotransferase (TAT) Assay; type: cell-based
T2 construct: endogenous in cells; host or cells: HepG2
T2 sequence (P04150 1-777): T1 sequence (P04150 1-777)
Description: Glucocorticoid mediated activation of TAT occurs by transactivation of glucocorticoid response elements in the TAT promoter by glucocorticoid receptor-agonist complex.
HepG2 cells were cultured using MEME media supplemented with 10% (v/v) foetal bovine serum; 2 mM L-glutamine and 1% (v/v) NEAA at 37° C., 5%/95% (v/v) CO2/air.
Compounds were serially half log diluted in 100% (v/v) dimethylsulphoxide from a 10 mM stock.
HepG2 cells were then lysed with 30 μl of cell lysis buffer containing a protease inhibitor cocktail for 15 minutes at 4° C. […] After 2 hours incubation at 37° C. the reaction was terminated by the addition of 15 μl of 10 M aqueous potassium hydroxide solution, and the plates incubated for a further 30 minutes at 37° C.
[compound] and fitting the data to a 4 parameter logistic equation.

| Compound | Ki (human recombinant GR) [nM] | Ki (glucocorticoid receptor) [nM] |
| --- | --- | --- |
| CCCn1ncc(S(=O)(=O)N2CC[C@H]3Cc4c(cnn4-c4ccc(F)cc4)C[C@]3(C(=O)c3cscn3)C2)n1 [Example 2S, ((4aR,8aS)-1-(4-fluorophenyl)-6-((2-propyl-2H-1,2,3-triazol-4-yl)sulfonyl)-4,4a,5,6,7,8,8a,9-octahydro-1H-pyrazolo[3,4-g]isoquinolin-4a-yl)(thiazol-4-yl)methanone] | < 0.5 | 20 to 100 |
| CN1CCOc2cc(S(=O)(=O)N3CC[C@H]4Cc5c(cnn5-c5ccc(F)cc5)C[C@]4(C(=O)c4ccccn4)C3)cnc21 [Example 2V, ((4aR,8aS)-1-(4-fluorophenyl)-6-((4-methyl-3,4-dihydro-2H-pyrido[3,2-b][1,4]oxazin-7-yl)sulfonyl)-4,4a,5,6,7,8,8a,9-octahydro-1H-pyrazolo[3,4-g]isoquinolin-4a-yl)(pyridin-2-yl)methanone] | > 1 | 20 to 100 |
| O=C(c1nccs1)[C@]12Cc3cnn(-c4ccc(F)cc4)c3C[C@@H]1CCN(S(=O)(=O)c1ccc(C(F)(F)F)cc1)C2 [Example 2M, ((4aR,8aS)-1-(4-fluorophenyl)-6-((4-(trifluoromethyl)phenyl)sulfonyl)-4,4a,5,6,7,8,8a,9-octahydro-1H-pyrazolo[3,4-g]isoquinolin-4a-yl)(thiazol-2-yl)methanone] | > 1 | 20 to 100 |
| CCCn1cc(S(=O)(=O)N2CC[C@H]3Cc4c(cnn4-c4ccc(F)cc4)C[C@]3(C(=O)c3nccs3)C2)cn1 [Example 2E, ((4aR,8aS)-1-(4-fluorophenyl)-6-((1-propyl-1H-pyrazol-4-yl)sulfonyl)-4,4a,5,6,7,8,8a,9-octahydro-1H-pyrazolo[3,4-g]isoquinolin-4a-yl)(thiazol-2-yl)methanone] | < 0.5 | < 20 |
| Cn1nncc1S(=O)(=O)N1CC[C@H]2Cc3c(cnn3-c3ccc(F)cc3)C[C@]2(C(=O)c2cc(C(F)(F)F)ccn2)C1 [Example 2X, ((4aR,8aS)-1-(4-fluorophenyl)-6-((1-methyl-1H-1,2,3-triazol-5-yl)sulfonyl)-4,4a,5,6,7,8,8a,9-octahydro-1H-pyrazolo[3,4-g]isoquinolin-4a-yl)(4-(trifluoromethyl)pyridin-2-yl)methanone] | > 1 | > 100 |
| O=C(c1ccccn1)[C@]12Cc3cnn(-c4ccc(F)cc4)c3C[C@@H]1CCN(S(=O)(=O)c1ccc(C(F)(F)F)c(F)c1)C2 [Example 2U, ((4aR,8aS)-6-((3-fluoro-4-(trifluoromethyl)phenyl)sulfonyl)-1-(4-fluorophenyl)-4,4a,5,6,7,8,8a,9-octahydro-1H-pyrazolo[3,4-g]isoquinolin-4a-yl)(pyridin-2-yl)methanone] | > 1 | 20 to 100 |
| CC(C)n1ncc(S(=O)(=O)N2CC[C@H]3Cc4c(cnn4-c4ccc(F)cc4)C[C@]3(C(=O)c3cscn3)C2)n1 [Example 2AJ, ((4aR,8aS)-1-(4-fluorophenyl)-6-((2-isopropyl-2H-1,2,3-triazol-4-yl)sulfonyl)-4,4a,5,6,7,8,8a,9-octahydro-1H-pyrazolo[3,4-g]isoquinolin-4a-yl)(thiazol-4-yl)methanone] | < 0.5 | < 20 |
| N#Cc1cccc(S(=O)(=O)N2CC[C@H]3Cc4c(cnn4-c4ccc(F)cc4)C[C@]3(C(=O)c3ccccn3)C2)c1 [Example 2T, 3-(((4aR,8aS)-1-(4-fluorophenyl)-4a-picolinoyl-4a,5,7,8,8a,9-hexahydro-1H-pyrazolo[3,4-g]isoquinolin-6(4H)-yl)sulfonyl)benzonitrile] | > 1 | 20 to 100 |
| CCn1ncc(S(=O)(=O)N2CC[C@H]3Cc4c(cnn4-c4ccc(F)cc4)C[C@]3(C(=O)c3ccccn3)C2)n1 [Example 2AB, ((4aR,8aS)-6-((2-ethyl-2H-1,2,3-triazol-4-yl)sulfonyl)-1-(4-fluorophenyl)-4,4a,5,6,7,8,8a,9-octahydro-1H-pyrazolo[3,4-g]isoquinolin-4a-yl)(pyridin-2-yl)methanone] | < 0.5 | 20 to 100 |
| Cn1cc(S(=O)(=O)N2CC[C@H]3Cc4c(cnn4-c4ccc(F)cc4)C[C@]3(C(=O)c3cc(C(F)(F)F)ccn3)C2)cn1 [Example 2H, ((4aR,8aS)-1-(4-fluorophenyl)-6-((1-methyl-1H-pyrazol-4-yl)sulfonyl)-4,4a,5,6,7,8,8a,9-octahydro-1H-pyrazolo[3,4-g]isoquinolin-4a-yl)(4-(trifluoromethyl)pyridin-2-yl)methanone] | > 1 | 20 to 100 |
| CCCn1ncc(S(=O)(=O)N2CC[C@H]3Cc4c(cnn4-c4ccc(F)cc4)C[C@]3(C(=O)c3ccccn3)C2)n1 [Example 2A, ((4aR,8aS)-1-(4-fluorophenyl)-6-((2-propyl-2H-1,2,3-triazol-4-yl)sulfonyl)-4,4a,5,6,7,8,8a,9-octahydro-1H-pyrazolo[3,4-g]isoquinolin-4a-yl)(pyridin-2-yl)methanone] | < 0.5 | < 20 |
| CCCn1nncc1S(=O)(=O)N1CC[C@H]2Cc3c(cnn3-c3ccc(F)cc3)C[C@]2(C(=O)c2nccs2)C1 [Example 2W, ((4aR,8aS)-1-(4-fluorophenyl)-6-((1-propyl-1H-1,2,3-triazol-5-yl)sulfonyl)-4,4a,5,6,7,8,8a,9-octahydro-1H-pyrazolo[3,4-g]isoquinolin-4a-yl)(thiazol-2-yl)methanone] | > 1 | > 100 |
| CC(C)n1ncc(S(=O)(=O)N2CC[C@H]3Cc4c(cnn4-c4ccc(F)cc4)C[C@]3(C(=O)c3ccccn3)C2)n1 [Example 2N, ((4aR,8aS)-1-(4-fluorophenyl)-6-((2-isopropyl-2H-1,2,3-triazol-4-yl)sulfonyl)-4,4a,5,6,7,8,8a,9-octahydro-1H-pyrazolo[3,4-g]isoquinolin-4a-yl)(pyridin-2-yl)methanone] | < 0.5 | < 20 |
| Cc1ccnc(C(=O)[C@]23Cc4cnn(-c5ccc(F)cc5)c4C[C@@H]2CCN(S(=O)(=O)c2cnn(C)n2)C3)c1 [Example 2R, ((4aR,8aS)-1-(4-fluorophenyl)-6-((2-methyl-2H-1,2,3-triazol-4-yl)sulfonyl)-4,4a,5,6,7,8,8a,9-octahydro-1H-pyrazolo[3,4-g]isoquinolin-4a-yl)(4-methylpyridin-2-yl)methanone] | < 0.5 | < 20 |
| CCn1nccc1S(=O)(=O)N1CC[C@H]2Cc3c(cnn3-c3ccc(F)cc3)C[C@]2(C(=O)c2cc(C(F)(F)F)ccn2)C1 [Example 2L, ((4aR,8aS)-6-((1-ethyl-1H-pyrazol-5-yl)sulfonyl)-1-(4-fluorophenyl)-4,4a,5,6,7,8,8a,9-octahydro-1H-pyrazolo[3,4-g]isoquinolin-4a-yl)(4-(trifluoromethyl)pyridin-2-yl)methanone] | > 1 | 20 to 100 |
